In patent publication US20230312528A1, “2-OXO-IMIDAZOLIDINE-4-CARBOXAMIDES AS NAV1.8 INHIBITORS” (Merck Sharp & Dohme LLC, priority 2020, published 2023):

Target: human NaV1.8 (Homo sapiens (Human), UniProt Q9Y5Y9)
Assay: Nav1.8 Qube automated patch-clamp assay
Type: cell-based
Conditions: human NaV1.8 stably expressed in HEK 293 cells; automated 384-well patch-clamp; resting or inactivated state not specified
Protocol: Compounds were tested on human NaV1.8 and NaV1.5 channels stably expressed in human embryo kidney (HEK) 293 cells. Sodium current measurements on Qube® were conducted as follows: automated 384-well patch-clamp assays on the Qube® platform (Sophion Biosciences) were used to measure the inhibition of sodium flow through human NaV1.8 and NaV1.5 channels. Whole-cell voltage-clamp recordings were performed in QChips® (Sophion Biosciences) at room temperature. NaV1.8 current measurements on Qube® were obtained as follows: NaV1.8 currents were elicited with a 10 second 1 Hertz (Hz) pulse train from a holding potential of −90 millivolts (mV), delivered to the cells once per minute in the control condition (DMSO only) and after compound addition. The 1 hertz pulse train stimulation consisted of ten test pulses to 10 millivolt (mV) for 20 milliseconds (ms), each of which was followed by a 980 millisecond repolarization to −67 millivolts. At the end of the 10 second pulse train stimulation, a 5 second hyperpolarization step to −100 millivolt (mV) was used to recover NaV1.8 from fast inactivation. The peak currents elicited by the 1st and 10th test pulses were used to determine IC50 values for resting inhibition and inactivated state inhibition. NaV1.5 current measurements on Qube® were obtained as follows: NaV1.5 currents were elicited with a 20 second 3 Hertz pulse train in the control condition (DMSO only) and after compound addition. The pulse train consisted of sixty 20 millisecond test pulses to 0 millivolt from a holding potential of −80 millivolt (mV). The average peak currents elicited by the last 3 test pulses were used to determine IC50 values for NaV1.5 inhibition.
The following buffers were used for the Qube® recordings: External buffer for NaV1.8 Qube® recording: 150 NaCl, 2 CaCl2, 5 KCl, 1 Mg Cl2, 10 HEPES, 12 Dextrose; External buffer for Qube® NaV1.5 recording: 120 N-Methyl-D-Glucamine, 40 NaCl, 1 KCl, 2.7 CaCl2, 5 HEPES, 0.5 MgCl2; and Internal buffer for Qube® recording: 120 CsF, 30 CsCl, 10 EGTA, 5 HEPES, 5 NaF, 2 MgCl2.
For all Qube® experiments offline analysis was used to determine percent inhibition as a function of drug concentration. IC50 values were determined by fitting to the Hill equation.

human NaV1.8, sequence (Q9Y5Y9 whole entry): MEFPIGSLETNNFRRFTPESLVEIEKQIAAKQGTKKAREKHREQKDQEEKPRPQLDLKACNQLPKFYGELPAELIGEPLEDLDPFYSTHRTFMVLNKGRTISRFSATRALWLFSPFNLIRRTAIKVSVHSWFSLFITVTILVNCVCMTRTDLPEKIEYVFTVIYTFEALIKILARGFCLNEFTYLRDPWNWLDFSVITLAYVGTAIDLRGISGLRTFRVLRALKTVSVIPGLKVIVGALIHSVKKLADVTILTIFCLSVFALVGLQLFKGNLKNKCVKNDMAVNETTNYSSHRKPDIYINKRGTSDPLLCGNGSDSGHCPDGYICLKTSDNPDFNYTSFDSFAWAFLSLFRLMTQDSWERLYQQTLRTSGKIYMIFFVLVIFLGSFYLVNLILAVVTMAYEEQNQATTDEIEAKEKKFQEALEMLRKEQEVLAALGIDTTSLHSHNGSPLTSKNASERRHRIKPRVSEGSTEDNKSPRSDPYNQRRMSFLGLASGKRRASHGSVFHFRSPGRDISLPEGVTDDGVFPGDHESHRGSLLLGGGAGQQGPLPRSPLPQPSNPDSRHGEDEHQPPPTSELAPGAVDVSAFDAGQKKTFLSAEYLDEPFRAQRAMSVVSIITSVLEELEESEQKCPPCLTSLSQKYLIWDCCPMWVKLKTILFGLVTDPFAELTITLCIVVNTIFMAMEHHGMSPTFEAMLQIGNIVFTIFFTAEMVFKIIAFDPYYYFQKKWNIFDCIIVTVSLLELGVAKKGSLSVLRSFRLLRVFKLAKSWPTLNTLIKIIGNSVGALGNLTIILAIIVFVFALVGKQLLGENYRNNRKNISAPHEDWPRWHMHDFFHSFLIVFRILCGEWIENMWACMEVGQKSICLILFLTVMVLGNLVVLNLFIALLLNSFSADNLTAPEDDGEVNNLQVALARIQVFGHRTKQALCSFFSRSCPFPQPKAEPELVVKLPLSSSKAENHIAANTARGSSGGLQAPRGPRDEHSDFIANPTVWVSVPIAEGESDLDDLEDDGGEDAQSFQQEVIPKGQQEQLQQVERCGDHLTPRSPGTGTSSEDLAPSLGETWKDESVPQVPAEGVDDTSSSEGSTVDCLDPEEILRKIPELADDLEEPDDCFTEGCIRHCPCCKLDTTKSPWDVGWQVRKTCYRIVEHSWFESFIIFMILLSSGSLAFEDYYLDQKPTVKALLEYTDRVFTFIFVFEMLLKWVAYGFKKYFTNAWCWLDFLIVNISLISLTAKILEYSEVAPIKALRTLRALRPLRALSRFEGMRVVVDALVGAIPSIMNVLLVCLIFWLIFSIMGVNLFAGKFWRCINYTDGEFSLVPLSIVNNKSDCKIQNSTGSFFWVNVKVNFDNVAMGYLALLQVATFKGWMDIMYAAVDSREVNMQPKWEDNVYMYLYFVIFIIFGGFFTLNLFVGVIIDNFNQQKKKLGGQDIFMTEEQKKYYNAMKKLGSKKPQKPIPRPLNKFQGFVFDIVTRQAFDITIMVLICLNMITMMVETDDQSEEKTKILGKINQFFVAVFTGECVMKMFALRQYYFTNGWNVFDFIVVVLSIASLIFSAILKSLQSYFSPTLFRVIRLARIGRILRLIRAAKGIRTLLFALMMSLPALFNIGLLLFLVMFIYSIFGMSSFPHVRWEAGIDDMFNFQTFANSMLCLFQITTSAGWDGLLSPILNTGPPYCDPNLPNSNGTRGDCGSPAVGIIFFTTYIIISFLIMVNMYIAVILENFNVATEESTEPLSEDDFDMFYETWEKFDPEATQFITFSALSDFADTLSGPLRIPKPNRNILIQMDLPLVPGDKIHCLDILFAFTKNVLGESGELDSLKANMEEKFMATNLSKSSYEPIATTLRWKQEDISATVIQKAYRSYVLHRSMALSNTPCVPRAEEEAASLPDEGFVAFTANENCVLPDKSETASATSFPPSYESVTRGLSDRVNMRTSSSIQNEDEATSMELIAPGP

Structure (SMILES)	IC50 [nM]
O=C1NC[C@@H](C(=O)NC(CC2CCC(C(F)(F)F)CC2)c2ccc(F)c(Cl)c2F)N1 (single isomer, unassigned) [Example 23B, (S)—N—((R or S)-1-(3-chloro-2,4-difluorophenyl)-2-((cis or trans)-4-(trifluoro-methyl)cyclohexyl)ethyl)-2-oxoimidazolidine-4-carboxamide]	4.9
O=C1NC[C@@H](C(=O)NC(CC2CCC(C(F)(F)F)CC2)c2ccc(F)c(Cl)c2F)N1 (single isomer, unassigned) [Example 23C, (S)—N—((R or S)-1-(3-chloro-2,4-difluorophenyl)-2-((cis or trans)-4-(trifluoromethyl)cyclohexyl)ethyl)-2-oxoimidazolidine-4-carboxamide]	62
O=C1NC[C@@H](C(=O)NC(CC2CCC(C(F)(F)F)CC2)c2ccc(F)c(Cl)c2F)N1 (single isomer, unassigned) [Example 23D, (S)—N—((R or S)-1-(3-chloro-2,4-difluorophenyl)-2-((cis or trans)-4-(trifluoromethyl)cyclohexyl)ethyl)-2-oxoimidazolidine-4-carboxamide]	190
O=C1NC[C@@H](C(=O)NC(c2ccc(OC(F)(F)F)nc2)c2ccc(F)c(Cl)c2F)N1 (single isomer, unassigned) [Example 24A, (4S)-N-{(R or S)-(3-chloro-2,4-difluorophenyl)[6-(trifluoromethoxy)pyridin-3-yl]methyl}-2-oxoimidazolidine-4-carboxamide]	3.1
O=C1NC[C@@H](C(=O)NC(c2ccc(OC(F)(F)F)nc2)c2ccc(F)c(Cl)c2F)N1 (single isomer, unassigned) [Example 24B, (4S)-N-{(R or S)-(3-chloro-2,4-difluorophenyl)[6-(trifluoromethoxy)pyridin-3-yl]methyl}-2-oxoimidazolidine-4-carboxamide]	41
O=C1NC[C@@H](C(=O)NC(CC2CCC(F)(F)CC2)c2ccc(F)c(Cl)c2F)N1 (single isomer, unassigned) [Example 25A, (S)-N-((R or S)-1-(3-chloro-2,4-difluorophenyl)-2-(4,4-difluorocyclohexyl)ethyl)-2-oxoimidazolidine-4-carboxamide]	22
O=C1NC[C@@H](C(=O)NC(CC2CCC(F)(F)CC2)c2ccc(F)c(Cl)c2F)N1 (single isomer, unassigned) [Example 25B, (S)-N-((R or S)-1-(3-chloro-2,4-difluorophenyl)-2-(4,4-difluorocyclohexyl)ethyl)-2-oxoimidazolidine-4-carboxamide]	189
O=C1NC[C@@H](C(=O)NC(CC2CCCOC2)c2ccc(F)c(Cl)c2F)N1 (single isomer, unassigned) [Example 26A, (S)-N-((R or S)-1-(3-chloro-2,4-difluorophenyl)-2-((R or S)-tetrahydro-2H-pyran-3-yl)ethyl)-2-oxoimidazolidine-4-carboxamide]	413
O=C1NC[C@@H](C(=O)NC(CC2CCCOC2)c2ccc(F)c(Cl)c2F)N1 (single isomer, unassigned) [Example 26B, (S)-N-((R or S)-1-(3-chloro-2,4-difluorophenyl)-2-((R or S)-tetrahydro-2H-pyran-3-yl)ethyl)-2-oxoimidazolidine-4-carboxamide]	22200
O=C1NC[C@@H](C(=O)NC(CC2CCCOC2)c2ccc(F)c(Cl)c2F)N1 (single isomer, unassigned) [Example 26C, (S)-N-((R or S)-1-(3-chloro-2,4-difluorophenyl)-2-((R or S)-tetrahydro-2H-pyran-3-yl)ethyl)-2-oxoimidazolidine-4-carboxamide]	386
O=C1NC[C@@H](C(=O)NC(CC2CCCOC2)c2ccc(F)c(Cl)c2F)N1 (single isomer, unassigned) [Example 26D, (S)-N-((R or S)-1-(3-chloro-2,4-difluorophenyl)-2-((R or S)-tetrahydro-2H-pyran-3-yl)ethyl)-2-oxoimidazolidine-4-carboxamide]	7830
O=C1NC[C@@H](C(=O)NC(c2ccc(F)c(Cl)c2F)C23CC(C(F)(F)F)(C2)C3)N1 (single isomer, unassigned) [Example 27A, (4S)—N—((R or S)-(3-chloro-2,4-difluorophenyl)(3-(trifluoromethyl)bicyclo[1.1.1]pentan-1-yl)methyl)-2-oxoimidazolidine-4-carboxamide]	5.8
O=C1NC[C@@H](C(=O)NC(c2ccc(F)c(Cl)c2F)C23CC(C(F)(F)F)(C2)C3)N1 (single isomer, unassigned) [Example 27B, (4S)—N—((R or S)-(3-chloro-2,4-difluorophenyl)(3-(trifluoromethyl)bicyclo[1.1.1]pentan-1-yl)methyl)-2-oxoimidazolidine-4-carboxamide]	244
O=C1NC[C@@H](C(=O)NC(c2ccc(F)c(Cl)c2)c2ccn(CC(F)(F)F)n2)N1 (single isomer, unassigned) [Example 28A, (4S)-N-{(R or S)-(3-chloro-4-fluorophenyl)[1-(2,2,2-trifluoroethyl)-1H-pyrazol-3-yl]methyl}-2-oxoimidazolidine-4-carboxamide]	633
O=C1NC[C@@H](C(=O)NC(c2ccc(F)c(Cl)c2)c2ccn(CC(F)(F)F)n2)N1 (single isomer, unassigned) [Example 28B, (4S)-N-{(R or S)-(3-chloro-4-fluorophenyl)[1-(2,2,2-trifluoroethyl)-1H-pyrazol-3-yl]methyl}-2-oxoimidazolidine-4-carboxamide]	436
O=C1NC[C@@H](C(=O)NC(COC2CCC(F)(F)CC2)c2ccc(F)c(Cl)c2)N1 (single isomer, unassigned) [Example 29A, (4S)-N-{1-((R or S)-3-chloro-4-fluorophenyl)-2-[(4,4-difluoro-cyclohexyl)oxy]ethyl}-2-oxoimidazolidine-4-carboxamide]	110
O=C1NC[C@@H](C(=O)NC(COC2CCC(F)(F)CC2)c2ccc(F)c(Cl)c2)N1 (single isomer, unassigned) [Example 29B, (4S)-N-{1-((R or S)-3-chloro-4-fluorophenyl)-2-[(4,4-difluoro-cyclohexyl)oxy]ethyl}-2-oxoimidazolidine-4-carboxamide]	161
CC1(C)CC(C(NC(=O)[C@@H]2CNC(=O)N2)c2ccc(F)c(Cl)c2F)C1 (single isomer, unassigned) [Example 30A, (4S)-N-[(R or S)-(3-chloro-2,4-di-fluoro-phenyl)(3,3-dimethylcyclobutyl)meth-yl]-2-oxoimidazolidine-4-carboxamide]	4.6
CC1(C)CC(C(NC(=O)[C@@H]2CNC(=O)N2)c2ccc(F)c(Cl)c2F)C1 (single isomer, unassigned) [Example 30B, (4S)-N-[(R or S)-(3-chloro-2,4-di-fluorophenyl)(3,3-dimethylcyclobutyl)meth-yl]-2-oxoimidazolidine-4-carboxamide]	458
Cn1nc(C(F)(F)F)cc1C(NC(=O)[C@@H]1CNC(=O)N1)c1ccc(F)c(Cl)c1 (single isomer, unassigned) [Example 31A, (S)-N-((R or S)-(3-chloro-4-fluorophenyl)(1-methyl-3-(tri-fluoromethyl)-1H-pyrazol-5-yl)methyl)-2-oxoimidazolidine-4-carboxamide]	5.2
Cn1nc(C(F)(F)F)cc1C(NC(=O)[C@@H]1CNC(=O)N1)c1ccc(F)c(Cl)c1 (single isomer, unassigned) [Example 31B, (S)-N-((R or S)-(3-chloro-4-fluorophenyl)(1-methyl-3-(tri-fluoromethyl)-1H-pyrazol-5-yl)methyl)-2-oxoimidazolidine-4-carboxamide]	268
O=C1NC[C@@H](C(=O)NC(c2ccc(F)c(Cl)c2)[C@H]2CC[C@H](C(F)(F)F)CC2)N1 (single isomer, unassigned) [Example 32A, (4S)—N—((R or S)-(3-chloro-4-fluorophenyl)(trans-4-(trifluoromethyl)cyclohexyl)methyl)-2-oxoimidazolidine-4-carboxamide]	3.4
O=C1NC[C@@H](C(=O)NC(c2ccc(F)c(Cl)c2)[C@H]2CC[C@H](C(F)(F)F)CC2)N1 (single isomer, unassigned) [Example 32B, (4S)—N—((R or S)-(3-chloro-4-fluorophenyl)(trans-4-(trifluoro-methyl)cyclohexyl)methyl)-2-oxoimidazolidine-4-carboxamide]	67
O=C1NC[C@@H](C(=O)NC(c2ccc(OCC(F)(F)F)nc2)c2ccc(F)c(Cl)c2F)N1 (single isomer, unassigned) [Example 33A, (S)—N—((R or S)-(3-chloro-2,4-difluorophenyl)(6-(2,2,2-trifluoroethoxy)pyridin-3-yl)methyl)-2-oxoimidazolidine-4-carboxamide]	1.3
